Experimental data: patent US20210317140A1, “Heterocyclic Compounds and Methods of Use” (MEDIVATION TECHNOLOGIES, INC, priority 2013, published 2021)

What was measured:
ITK = molecular target: T1, ITK (Homo sapiens, UniProt Q08881); assay: ITK kinase profiling (BTK protocol); type: biochemical; details: for ITK @ 0.3 μM (% Inh): 0.3 μM compound; for IC50: 10 dose IC50
T1 construct: purchased Reaction Biology Corporation
T1 sequence (Q08881 1-620): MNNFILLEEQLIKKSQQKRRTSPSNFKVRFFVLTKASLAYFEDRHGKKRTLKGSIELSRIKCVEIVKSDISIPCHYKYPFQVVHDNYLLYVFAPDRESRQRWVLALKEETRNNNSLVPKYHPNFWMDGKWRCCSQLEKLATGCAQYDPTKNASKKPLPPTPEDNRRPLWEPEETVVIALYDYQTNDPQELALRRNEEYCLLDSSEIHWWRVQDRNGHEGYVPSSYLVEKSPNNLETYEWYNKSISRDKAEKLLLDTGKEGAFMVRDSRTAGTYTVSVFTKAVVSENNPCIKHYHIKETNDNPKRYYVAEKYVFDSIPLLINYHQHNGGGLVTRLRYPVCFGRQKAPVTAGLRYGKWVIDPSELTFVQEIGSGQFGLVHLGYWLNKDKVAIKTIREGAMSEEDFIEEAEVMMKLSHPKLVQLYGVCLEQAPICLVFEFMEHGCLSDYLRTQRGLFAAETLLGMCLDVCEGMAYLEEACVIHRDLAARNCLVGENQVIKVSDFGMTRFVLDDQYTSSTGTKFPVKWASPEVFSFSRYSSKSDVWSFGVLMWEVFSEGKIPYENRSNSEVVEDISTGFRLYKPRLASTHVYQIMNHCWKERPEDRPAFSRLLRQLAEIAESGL
Procedure: BTK assay: In vitro profiling protein kinases was performed using the “HotSpot” assay platform. Briefly, specific kinase/substrate pairs along with required cofactors were prepared in reaction buffer. Compounds were prepared as 10 mM stock solutions in DMSO. Compounds were delivered into the reaction, followed 15-20 minutes later by addition of a mixture of ATP (Sigma, St. Louis Mo.) and ^33P ATP (Perkin Elmer, Waltham Mass.) to a final concentration of 10 μM. […] IC50 values and curve fits were obtained using Prism (GraphPad Software). Buffer Conditions: 20 mM Hepes (pH 7.5), 10 mM MgCl2, 1 mM EGTA, 0.02% Brij35, 0.02 mg/mL BSA, 0.1 mM Na3VO4, 2 mM DTT, 1% DMSO.

PI3Kα = molecular target: T2, PI3Kα (Homo sapiens, UniProt P42336); assay: PI3Kα isoform profiling (PI3Kδ protocol); type: biochemical; details: 10 dose IC50
T2 construct: purchased Reaction Biology Corporation
Description: PI3Kδ assay: The PIP3 product is detected by displacement of biotin-PIP3 from an energy transfer complex consisting of Europium labeled anti-GST monoclonal antibody, a GST-tagged pleckstrin homology (PH) domain, biotinylated PIP3 and Streptavidin-Allophycocyanin (APC). Excitation of Europium in the complex results in an energy transfer to the APC and a fluorescent emission at 665 nm. The PIP3 product formed by PI 3-Kinase(h) activity displaces biotin-PIP3 from the complex resulting in a loss of energy transfer and thus a decrease in signal. This is a 3-step reaction: First, the kinase reaction with PIP2 substrate is carried out in the presence of ATP (10 μM), and the reaction is quenched with stop Solution, and then finally detect by adding Detection Mixture followed by incubation (10 min). Reaction procedure: 1) Prepare substrate in freshly prepared Reaction Buffer. 2) Deliver kinase into the substrate solution and gently mix. 3) Deliver compounds in 100% DMSO (1 μM) into the kinase reaction mixture by Acoustic technology (Echo550; nanoliter range), incubate for 10 min at RT. 4) Deliver ATP into the reaction mixture to initiate the reaction. 5) Incubate for 30 min at 30° C. 6) Quench the reaction with Stop Solution. 7) Add Detection Mixture, and incubate for overnight. 8) Measure HTRF: Ex=320 nm, ratio of Em=615 nm and Em=665 nm. The emission ratio is converted into μM PIP3 production based on PIP3 standard curves. The nonlinear regression to obtain the standard curve and IC50 values are performed using Graphpad Prism software. Assay Buffer: HEPES 50 mM (pH7.0), NaN3 0.02%, BSA 0.01%, Orthovanadate 0.1 mM, 1% DMSO. Detection buffer: HEPES 10 mM (pH7.0), BSA 0.02%, KF 0.16 M, EDTA 4 mM. Substrate: 10 μM PIP2 substrate (PI(4,5)P2).
Compounds of the invention were profiled in a 10 dose IC50 panel against PI3Kα, PI3Kβ, and PI3Kγ kinases, provided by Reaction Biology Corporation, applied to the PI3Kδ protocol provided in Example B1.

BTK = molecular target: T3, BTK (Homo sapiens, UniProt Q06187); assay: BTK kinase assay (HotSpot, 33P ATP); type: biochemical; details: for BTK @ 0.1 μM (% Inh): 0.1 μM compound; for BTK @ 0.1 μM (% Inh) / BTK @ 1 μM (% Inh) / BTK @ 0.01 μM (% Inh): 10 μM ATP; for BTK @ 1 μM (% Inh): 1 μM compound; for IC50: 10 dose IC50, 10 μM ATP; for BTK @ 0.01 μM (% Inh): 0.01 μM compound
T3 construct: purchased Reaction Biology Corporation
Method in brief: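 In 20 mM Hepes (pH 7.5) with 10 mM MgCl2, 1 mM EGTA, 0.1 mM Na3VO4, 2 mM DTT, 0.02% Brij35, 0.02 mg/mL BSA and 1% DMSO, kinase and substrate were exposed to ten compound doses for 15–20 min.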

CD69+B220+ cells = assay: B cell activation assay (IgD-stimulated splenocytes, CD69+B220+ cells by FACS); type: cell-based; details: IgD 3 μg/mL, 4 h; for CD69 @ 100 nM (% Inh): 100 nM compound; for IC50: Splenocyte
Method in brief: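 Read-out is percent CD69+ among live B220+ cells by FACS after 4 h stimulation with 3 μg/mL IgD at 37 °C. Before stimulation, splenocytes from one female mouse (10^6 cells/mL) received 100 nM compound for 30 min.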

T3 sequence (Q06187 whole entry): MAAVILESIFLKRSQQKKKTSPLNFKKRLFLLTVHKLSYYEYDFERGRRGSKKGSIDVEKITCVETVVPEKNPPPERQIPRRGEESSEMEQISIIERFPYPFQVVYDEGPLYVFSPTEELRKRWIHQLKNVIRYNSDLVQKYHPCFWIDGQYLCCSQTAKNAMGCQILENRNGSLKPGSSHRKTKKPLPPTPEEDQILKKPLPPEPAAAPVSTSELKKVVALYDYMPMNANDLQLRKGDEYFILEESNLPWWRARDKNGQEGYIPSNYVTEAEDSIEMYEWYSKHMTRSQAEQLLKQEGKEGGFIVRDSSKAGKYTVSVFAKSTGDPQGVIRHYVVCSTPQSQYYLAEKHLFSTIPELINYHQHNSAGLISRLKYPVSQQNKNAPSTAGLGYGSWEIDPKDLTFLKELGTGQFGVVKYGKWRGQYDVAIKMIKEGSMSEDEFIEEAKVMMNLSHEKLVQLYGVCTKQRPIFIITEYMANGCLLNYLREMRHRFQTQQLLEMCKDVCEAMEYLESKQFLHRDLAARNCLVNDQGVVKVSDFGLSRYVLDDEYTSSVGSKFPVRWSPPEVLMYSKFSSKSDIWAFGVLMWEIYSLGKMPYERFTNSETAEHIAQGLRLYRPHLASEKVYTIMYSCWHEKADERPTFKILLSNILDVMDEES
T2 sequence (P42336 whole entry, canonical isoform): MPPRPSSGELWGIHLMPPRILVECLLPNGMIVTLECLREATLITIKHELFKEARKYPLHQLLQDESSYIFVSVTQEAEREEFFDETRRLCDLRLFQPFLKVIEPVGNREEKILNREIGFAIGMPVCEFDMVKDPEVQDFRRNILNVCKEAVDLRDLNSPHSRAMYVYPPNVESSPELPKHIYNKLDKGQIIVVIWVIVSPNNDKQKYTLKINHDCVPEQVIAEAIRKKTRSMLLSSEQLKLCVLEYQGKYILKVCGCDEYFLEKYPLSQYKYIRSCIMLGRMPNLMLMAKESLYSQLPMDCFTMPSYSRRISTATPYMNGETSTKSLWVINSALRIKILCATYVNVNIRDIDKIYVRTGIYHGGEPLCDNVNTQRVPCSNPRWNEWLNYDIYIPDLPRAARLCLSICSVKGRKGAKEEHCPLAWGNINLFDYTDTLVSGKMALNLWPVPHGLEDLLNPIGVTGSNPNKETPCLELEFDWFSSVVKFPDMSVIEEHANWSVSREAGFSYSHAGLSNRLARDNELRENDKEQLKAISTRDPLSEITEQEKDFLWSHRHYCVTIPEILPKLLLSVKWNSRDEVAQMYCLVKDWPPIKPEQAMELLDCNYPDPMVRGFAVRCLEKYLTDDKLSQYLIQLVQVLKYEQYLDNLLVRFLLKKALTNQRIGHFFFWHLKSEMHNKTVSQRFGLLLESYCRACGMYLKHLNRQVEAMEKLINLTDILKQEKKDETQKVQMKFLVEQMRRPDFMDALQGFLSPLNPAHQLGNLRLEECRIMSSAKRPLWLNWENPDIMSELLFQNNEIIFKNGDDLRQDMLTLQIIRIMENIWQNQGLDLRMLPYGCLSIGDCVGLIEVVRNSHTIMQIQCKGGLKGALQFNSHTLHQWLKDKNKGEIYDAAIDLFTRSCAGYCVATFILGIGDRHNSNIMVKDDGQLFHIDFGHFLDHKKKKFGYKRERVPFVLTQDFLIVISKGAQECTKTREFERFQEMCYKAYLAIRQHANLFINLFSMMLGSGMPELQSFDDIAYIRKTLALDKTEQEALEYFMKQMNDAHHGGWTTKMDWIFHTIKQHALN
T2 sequence (P27986 whole entry partner, canonical isoform): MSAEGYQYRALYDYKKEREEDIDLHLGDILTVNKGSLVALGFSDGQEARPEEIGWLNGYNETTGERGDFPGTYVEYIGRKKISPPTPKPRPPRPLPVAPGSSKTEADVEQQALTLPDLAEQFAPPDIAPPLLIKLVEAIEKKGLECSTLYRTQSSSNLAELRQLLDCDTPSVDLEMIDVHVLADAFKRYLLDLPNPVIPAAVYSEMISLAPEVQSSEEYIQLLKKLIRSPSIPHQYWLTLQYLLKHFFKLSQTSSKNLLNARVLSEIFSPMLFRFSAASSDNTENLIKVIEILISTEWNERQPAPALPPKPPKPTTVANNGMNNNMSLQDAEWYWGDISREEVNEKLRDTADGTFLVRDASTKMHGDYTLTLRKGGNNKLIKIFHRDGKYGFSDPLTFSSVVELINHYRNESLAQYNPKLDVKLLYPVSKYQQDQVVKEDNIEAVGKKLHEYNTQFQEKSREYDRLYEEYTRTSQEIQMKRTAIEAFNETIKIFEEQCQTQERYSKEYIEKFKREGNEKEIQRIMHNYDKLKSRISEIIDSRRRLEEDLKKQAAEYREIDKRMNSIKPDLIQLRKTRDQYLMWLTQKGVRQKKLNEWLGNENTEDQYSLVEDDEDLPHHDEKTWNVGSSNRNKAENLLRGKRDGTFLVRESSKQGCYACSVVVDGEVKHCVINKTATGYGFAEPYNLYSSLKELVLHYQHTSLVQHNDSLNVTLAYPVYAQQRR

ITK @ 0.3 μM (% Inh) (ITK) | IC50 (PI3Kα) [nM] | BTK @ 0.1 μM (% Inh) (BTK) | BTK @ 1 μM (% Inh) (BTK) | IC50 (BTK) [nM] | IC50 (CD69+B220+ cells; Mus musculus) [nM] | IC50 (ITK) [nM] | BTK @ 0.01 μM (% Inh) (BTK) | IC50 (CD69+B220+ cells; mouse splenocytes) [nM] | SMILES | CD69 @ 100 nM (% Inh) (CD69+B220+ cells; mouse splenocytes) | CD69 @ 100 nM (% Inh) (CD69+B220+ cells; mouse splenocytes, 0.1 µM)
6.31 | 504 | 75.02 | 96.31 | 57.1 |  |  |  |  | COc1cc(-c2nn(C3Cc4ccccc4C3)c3ncnc(N)c23)ccc1C [Compound No. 49, 1-(2,3-dihydro-1H-inden-2-yl)-3-(3-methoxy-4-methylphenyl)-1H-pyrazolo[3,4-d]pyrimidin-4-amine] | 16.42 ± 20.45 (n = 9) % Inh | 
2.1 | 21.1 | 73.83 | 94.81 | 26.9 | 106 ± 50.8 |  |  |  | Nc1ncnc2c1c(-c1cc(O)c(F)c(F)c1)nn2C1Cc2ccccc2C1 [Compound No. 81, 5-[4-amino-1-(2,3-dihydro-1H-inden-2-yl)-1H-pyrazolo[3,4-d]pyrimidin-3-yl]-2,3-difluorophenol] | 88.08 ± 32.59 (n = 5) % Inh | 
 | 161 | 82.1 |  | 20.9 |  | 51600 |  |  | Nc1ncnc2c1c(-c1ccc(F)c(O)c1)nn2C1CCc2ccccc2C1 (single isomer, unassigned) [Compound No. 26b, 5-(4-amino-1-(1,2,3,4-tetrahydronaphthalen-2-yl)-1H-pyrazolo[3,4-d]pyrimidin-3-yl)-2-fluorophenol] |  | 11.62 ± 20.93 (n = 5) % Inh
 | 73.1 | 90.90 |  | 7 |  | > 100000 |  |  | Nc1ncnc2c1c(-c1ccc(F)c(O)c1)nn2C1Cc2ccccc2C1 [Compound No. 29, 5-(4-amino-1-indan-2-yl-pyrazolo[3,4-d]pyrimidin-3-yl)-2-fluoro-phenol] | 17.76 ± 20.69 (n = 9) % Inh | 
8.82 | 186 | 90.244 | 98.64 | 13.5 |  |  |  |  | Nc1ncnc2c1c(-c1ccc(Cl)c(O)c1)nn2C1Cc2ccccc2C1 [Compound No. 56, 5-[4-amino-1-(2,3-dihydro-1H-inden-2-yl)-1H-pyrazolo[3,4-d]pyrimidin-3-yl]-2-chlorophenol] | 20.57 ± 19.79 (n = 9) % Inh | 
6.31 | 249 | 93.12 |  | 12.1 |  |  | 64.36 |  | C=CC(=O)N1CC(n2nc(-c3cc(O)cc(F)c3)c3c(N)ncnc32)Cc2cc(C)ccc21 (single isomer, unassigned) [31b, 1-(3-(4-amino-3-(3-fluoro-5-hydroxyphenyl)-1H-pyrazolo[3,4-d]pyrimidin-1-yl)-6-methyl-3,4-dihydroquinolin-1(2H)-yl)prop-2-en-1-one] |  | −13.21 ± 4.55 (n = 3) % Inh
−2.3 | 638 | 51.83 | 90.69 | 104 | 154 |  |  |  | Nc1ncnc2c1c(-c1cc(F)c3c(c1)NCCO3)nn2C1Cc2ccccc2C1 [Compound No. 84, 1-(2,3-dihydro-1H-inden-2-yl)-3-(8-fluoro-3,4-dihydro-2H-1,4-benzoxazin-6-yl)-1H-pyrazolo[3,4-d]pyrimidin-4-amine] | 47.61 ± 24.72 (n = 15) % Inh | 
5.31 | 71.1 | 63.18 | 93.26 | 134 |  |  |  | 117 ± 83.6 | Nc1ncnc2c1c(-c1cc(O)cc(F)c1)nn2C1Cc2ccc(F)cc2C1 (stereo not shown) [compound 57, 3-[4-amino-1-(5-fluoro-2,3-dihydro-1H-inden-2-yl)-1H-pyrazolo[3,4-d]pyrimidin-3-yl]-5-fluorophenol] | 64.26 ± 21.20 (n = 6) % Inh | 
−3.49 | 83.5 | 91.79 |  | 2.5 |  |  | 55.15 |  | Nc1ncnc2c1c(-c1cc(O)c(F)c(Cl)c1)cn2C1Cc2ccccc2C1 [compound 110, 5-[4-amino-7-(2,3-dihydro-1H-inden-2-yl)-7H-pyrrolo[2,3-d]pyrimidin-5-yl]-3-chloro-2-fluorophenol] | −11.51 ± 15.89 (n = 3) % Inh | 
3.68 | 74.7 | 92.01 | 98.56 | 4.2 |  |  |  |  | Nc1ncnc2c1c(-c1cc(O)cc(F)c1)cn2C1Cc2ccccc2C1 [Compound No. 63, 3-[4-amino-7-(2,3-dihydro-1H-inden-2-yl)-7H-pyrrolo[2,3-d]pyrimidin-5-yl]-5-fluorophenol] | 21.07 ± 27.71 (n = 9) % Inh | 
 | 143 | 84.11 |  | 10.4 |  | > 100000 |  |  | Nc1ncnc2c1c(-c1ccc(F)c(O)c1)nn2C1CCc2ccccc2C1 (single isomer, unassigned) [Compound No. 26a, 5-(4-amino-1-(1,2,3,4-tetrahydronaphthalen-2-yl)-1H-pyrazolo[3,4-d]pyrimidin-3-yl)-2-fluorophenol] |  | 16.07 ± 15.99 (n = 5) % Inh

SMILES | ITK @ 0.3 μM (% Inh) (ITK) | IC50 (PI3Kα) [nM] | BTK @ 0.1 μM (% Inh) (BTK) | BTK @ 1 μM (% Inh) (BTK) | IC50 (BTK) [nM] | IC50 (CD69+B220+ cells; Mus musculus) [nM] | IC50 (ITK) [nM] | BTK @ 0.01 μM (% Inh) (BTK) | IC50 (CD69+B220+ cells; mouse splenocytes) [nM] | CD69 @ 100 nM (% Inh) (CD69+B220+ cells; mouse splenocytes) | CD69 @ 100 nM (% Inh) (CD69+B220+ cells; mouse splenocytes, 0.1 µM)
Nc1ncnc2c1c(-c1ccc(Br)c(O)c1)nn2C1Cc2ccccc2C1 [compound 2, 5-(4-amino-1-(2,3-dihydro-1H-inden-2-yl)-1H-pyrazolo[3,4-d]pyrimidin-3-yl)-2-bromophenol] |  | 17.3 | 78.45 |  |  |  | > 100000 |  |  | 22.52 ± 18.41 (n = 5) % Inh | 
